# Values quoted from earlier work, collected in patent US10537528B2 (The Regents of the University of California, priority 2015, dated 2020).
# Tests used:
# [1] = test system: intracellular cystine (circulating white blood cells)
# [2] = test system: obese individuals with NASH; conditions: treated for 4-12 weeks
# [3] = test system: obese children who had steatosis; conditions: 400-1000 IU/day for 4-10 months
compound,measurement,setting,value
NCCS [cysteamine],time to observed decrease in leukocyte cystine,[1]; delivery into the small intestine (WO 2007/089670),within an hour
same,depletion of intracellular cystine,"[1]; taken regularly, measured in circulating white blood cells",up to 90%
CC(=O)N[C@@H](CS)C(=O)O [N-acetylcysteine],aminotransferase levels and gamma-GT,[2],improvement
same,subject body mass index,[2],no reported change
vitamin E,mean AST levels after treatment,"[3]; decreased from 104±61 IU/L, P<0.002",33±11 IU/L
same,mean ALT levels after treatment,"[3]; decreased from 175±106 IU/L, P<0.01",40±26 IU/L
